Tested on: T1, LPAAT (lysophosphatidate acyltransferase, microsomal preparations)
T1 construct: gene LPAT2; native microsomes from 27 DAF embryos; several endogenous ER isoenzymes
Assay: […]-PA formation, TLC; bi-substrate rate equation fit
Assay type: biochemical
Conditions: 50 mM Tris pH 7.5, 1 mg/ml BSA, 30°C, 10 min, embryo microsomes, line not told

Km (co-substrate LPA at high concentration, labelled compound (1-14C-oleoyl-CoA)) [µM]	Km (co-substrate 1-14C-oleoyl-CoA at high concentration) [µM]	SMILES
103	–	CCCCCCCC/C=C\CCCCCCCC(=O)SCCNC(=O)CCNC(=O)[C@H](O)C(C)(C)COP(=O)(O)OP(=O)(O)OC[C@H]1O[C@@H](n2cnc3c(N)ncnc32)[C@H](O)[C@@H]1OP(=O)(O)O [oleoyl-CoA]
–	15.2	CCCCCCCC/C=C\CCCCCCCC(=O)OC[C@@H](O)COP(=O)(O)O [LPA]

From article PMC6790676, “Increase in lysophosphatidate acyltransferase activity in oilseed rape (Brassica napus) increases seed triacylglycerol content despite its low intrinsic flux control coefficient” (The New Phytologist, 2019)
